# Target: T1, M4 muscarinic receptor (Homo sapiens, UniProt P08173)
# T1 construct: expressed in transfected cells; host or cells: CHO (M4-CHO)
# T1 sequence (P08173 1-479): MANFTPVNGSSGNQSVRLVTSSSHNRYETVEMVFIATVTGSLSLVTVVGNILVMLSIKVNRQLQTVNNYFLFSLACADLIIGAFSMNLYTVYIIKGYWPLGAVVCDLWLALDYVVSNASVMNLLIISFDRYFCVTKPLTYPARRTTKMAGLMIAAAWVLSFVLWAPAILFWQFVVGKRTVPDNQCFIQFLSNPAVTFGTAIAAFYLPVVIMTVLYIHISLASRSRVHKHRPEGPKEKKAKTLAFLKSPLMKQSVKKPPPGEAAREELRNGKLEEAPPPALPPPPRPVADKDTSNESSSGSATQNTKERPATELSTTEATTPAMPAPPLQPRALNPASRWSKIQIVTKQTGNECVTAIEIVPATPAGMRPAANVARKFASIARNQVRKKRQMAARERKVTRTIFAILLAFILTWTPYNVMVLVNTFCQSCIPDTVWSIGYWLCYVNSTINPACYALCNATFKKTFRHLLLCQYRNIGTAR
# Assay: Functional mobilization of intracellular calcium (FLIPR), M4-CHO cells
# Type: cell-based
# Conditions: 100% efficacy = maximum response obtained with the Carbachol control
# Procedure: (§1) Functional Mobilization of Intracellular Calcium to Determine Muscarinic Receptor Activity:
# (§2) CHO cells expressing muscarinic receptors (M1 to M5) are grown as monolayers in tissue culture flasks at 37° C. in a humidified atmosphere containing 5% CO2 and passaged every 3-5 days. The growth media is Dulbecco's modified eagles medium (DMEM, Gibco Cat# 12430-054), containing 25 mM Hepes and supplemented with Fetal Bovine Serum (Hyclone, cat #SH30071.03), 0.1 mM of MEM non-essential amino acids (GIBCO, Cat #11140-050), 1 mM MEM Sodium Pyruvate (GIBCO Cat #11360-070) and 100 units/ml of Penicillin G and 100 μg/ml of Streptomycin (GIBCO Cat #15140-122). The recombinant muscarinic receptor cell lines are grown under antibiotic pressure with media containing 25 μg/ml zeocin and 500 μg/ml G418 (M1-CHO), 4 μg/ml puromycin, 50 μg/ml zeocin and 2.5 μg/ml blasticidin (M2 and M4-CHO) or 50 μg/ml zeocin and 4 μg/ml puromycin (M3 and M5-CHO).
# (§3) Cells are harvested at 80-90% confluence using Versene (GIBCO Cat #15040-066), collected by centrifugation and seeded 18-24 hrs prior to running the calcium assay at a density of 5,000-10,000 cells/well in […], clear-bottomed 384-well plates (BD Biocoat, poly-D-lysine, Cat#356663). The day of the experiment, the cells are washed with a plate washer (Bioteck Instruments, ELX 405) using bath1 buffer (140-mM NaCl, 4.5-mM KCl, 2-mM CaCl2, 1-mM MgCl2, 10-mM Hepes-Na, 10-mM Glucose, pH 7.4, with NaOH) containing 1 mM Probenecid. Next, the calcium dye Fluo-3 (25 μl/well of Fluo-3 AM at 4 μM, Molecular Probes F-1241, in Bath 1 buffer containing 1 mM Probenecid) is added to the 25 μl of Bath 1 remaining in each well after the plate wash and the dye is loaded at 37° C. in the tissue culture incubator for 60-90 min. The fluorescent dye is removed using the plate washer with Bath 1 containing 1 mM Probenecid, leaving 25 μl/well of this solution after the wash. Alternatively, cells can be loaded with the calcium indicator from Molecular Devices (Calcium 3 Assay Reagents, Cat #R7181) adding 5 μl of a 5× solution dye in Bath 1 containing 1 mM Probenecid (10 ml per dye flask cat #R7182 to generate a solution 20×) to 20 μl of the same buffer. After loading for 60 min, the experiment can be run without having to remove the dye.
# (§4) Compounds are prepared at a 2× fold concentration in a 96-well plate (round bottom, Costar Corning cat #3656), by reconstituting the pre-spotted compounds in bath 1 containing 1 mM probenecid. The final concentration DMSO is 0.5%, and the amount of DMSO is normalized across the assay plate. To determine an agonist action of the compounds on muscarinic receptors, the reconstituted compounds are added (25 μl compound/well) to the cell assay plate (containing 25 μl/well) using the multi-channel robotic system of the FLIPR 3 Instrument (Molecular Devices, Sunnyvale, Calif.). To determine a functional inhibitory action of the compounds on muscarinic receptors, the reconstituted compounds are added (25 μl compound/well) to the assay plate and pre-incubated for 15 min prior to adding 25 μl of Carbachol at 3× the EC80 for each muscarinic subtype. Alternatively, the compounds can be co-applied simultaneously with the agonist. In both assay modes, the fluorescence is recorded for 60 sec (excitation wavelength is […] and emission wavelength 540 nm) using the FLIPR 3 instrument.
# (§5) The potency, efficacy and selectivity of the muscarinic compounds were evaluated by screening the compound activity across the whole family (M1 to M5 cells). Compounds were also screened for activity on other proteins such as other GPCRs and ion channels to determine selectivity on M4 receptors.
# (§6) Examples of activities and efficacies of the muscarinic compounds of formulae (I, Ia, and Ib) on modulating M1 and M4 receptors are shown below in Table 3. […]
row,Compound,Emax [%]
1,CN1C(=O)C[C@@H]2CC3(CCN(C4CC5CCC(C5)C4)CC3)c3ccccc3[C@@H]21 (some centres unmarked) [Compound 15],25 to 100
2,CCOC(=O)N1CCC(N2CCC3(CC2)C[C@H]2CC(=O)N(CCOC)[C@H]2c2ccccc23)CC1 [Compound 1],25 to 100
3,CCOC(=O)N1CCC(N2CCC3(CC2)C[C@H]2CC(=O)N(C)[C@H]2c2ccccc23)CC1 [Compound 12],25 to 100
4,O=C1C[C@@H]2[C@H](N1)c1ccccc1C21CCN(C2CCCCC2)CC1 [Compound 31],25 to 100

# Same assay, conditions: CHO cells expressing M4, calcium mobilization
row,Compound,EC50 [nM]
1,CN1C(=O)C[C@@H]2CC3(CCN(C4CC5CCC(C5)C4)CC3)c3ccccc3[C@@H]21 (some centres unmarked) [Compound 15],< 2000
2,CCOC(=O)N1CCC(N2CCC3(CC2)C[C@H]2CC(=O)N(CCOC)[C@H]2c2ccccc23)CC1 [Compound 1],< 2000
3,CCOC(=O)N1CCC(N2CCC3(CC2)C[C@H]2CC(=O)N(C)[C@H]2c2ccccc23)CC1 [Compound 12],< 2000
4,O=C1C[C@@H]2[C@H](N1)c1ccccc1C21CCN(C2CCCCC2)CC1 [Compound 31],< 2000

# Target: T2, M3 muscarinic receptor (Homo sapiens, UniProt P20309)
# T2 construct: expressed in transfected cells; host or cells: CHO (M3-CHO)
# Assay: Functional mobilization of intracellular calcium (FLIPR), M3-CHO cells
# Type: cell-based
# Conditions: 100% efficacy = maximum response obtained with the Carbachol control
# Procedure: as §1, §2, §3, §4, §5, §6
# T2 sequence (P20309 whole entry): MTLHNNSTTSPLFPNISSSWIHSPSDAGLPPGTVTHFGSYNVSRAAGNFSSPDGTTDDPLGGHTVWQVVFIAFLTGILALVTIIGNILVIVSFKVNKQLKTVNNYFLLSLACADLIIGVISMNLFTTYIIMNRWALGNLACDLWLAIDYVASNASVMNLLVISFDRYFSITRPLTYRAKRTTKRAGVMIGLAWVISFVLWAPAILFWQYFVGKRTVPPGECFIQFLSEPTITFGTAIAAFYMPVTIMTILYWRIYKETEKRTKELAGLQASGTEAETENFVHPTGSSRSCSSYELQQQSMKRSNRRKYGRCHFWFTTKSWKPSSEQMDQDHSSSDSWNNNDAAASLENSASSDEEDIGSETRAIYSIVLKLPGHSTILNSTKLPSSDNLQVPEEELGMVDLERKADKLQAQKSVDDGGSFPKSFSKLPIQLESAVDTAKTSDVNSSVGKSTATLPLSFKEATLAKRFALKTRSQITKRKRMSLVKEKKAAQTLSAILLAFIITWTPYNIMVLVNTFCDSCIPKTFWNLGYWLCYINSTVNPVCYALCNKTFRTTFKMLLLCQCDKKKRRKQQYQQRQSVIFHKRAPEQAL
row,Compound,Emax [%]
1,CN1C(=O)C[C@@H]2CC3(CCN(C4CC5CCC(C5)C4)CC3)c3ccccc3[C@@H]21 (some centres unmarked) [Compound 15],< 25
2,CCOC(=O)N1CCC(N2CCC3(CC2)C[C@H]2CC(=O)N(CCOC)[C@H]2c2ccccc23)CC1 [Compound 1],< 25
3,CCOC(=O)N1CCC(N2CCC3(CC2)C[C@H]2CC(=O)N(C)[C@H]2c2ccccc23)CC1 [Compound 12],< 25
4,O=C1C[C@@H]2[C@H](N1)c1ccccc1C21CCN(C2CCCCC2)CC1 [Compound 31],< 25

# Same assay, conditions: CHO cells expressing M3, calcium mobilization
row,Compound,EC50 [nM]
1,CN1C(=O)C[C@@H]2CC3(CCN(C4CC5CCC(C5)C4)CC3)c3ccccc3[C@@H]21 (some centres unmarked) [Compound 15],> 5000
2,CCOC(=O)N1CCC(N2CCC3(CC2)C[C@H]2CC(=O)N(CCOC)[C@H]2c2ccccc23)CC1 [Compound 1],> 5000
3,CCOC(=O)N1CCC(N2CCC3(CC2)C[C@H]2CC(=O)N(C)[C@H]2c2ccccc23)CC1 [Compound 12],> 5000
4,O=C1C[C@@H]2[C@H](N1)c1ccccc1C21CCN(C2CCCCC2)CC1 [Compound 31],> 5000

# Target: T3, M1 muscarinic receptor (Homo sapiens, UniProt P11229)
# T3 construct: expressed in transfected cells; host or cells: CHO (M1-CHO)
# T3 sequence (P11229 1-460): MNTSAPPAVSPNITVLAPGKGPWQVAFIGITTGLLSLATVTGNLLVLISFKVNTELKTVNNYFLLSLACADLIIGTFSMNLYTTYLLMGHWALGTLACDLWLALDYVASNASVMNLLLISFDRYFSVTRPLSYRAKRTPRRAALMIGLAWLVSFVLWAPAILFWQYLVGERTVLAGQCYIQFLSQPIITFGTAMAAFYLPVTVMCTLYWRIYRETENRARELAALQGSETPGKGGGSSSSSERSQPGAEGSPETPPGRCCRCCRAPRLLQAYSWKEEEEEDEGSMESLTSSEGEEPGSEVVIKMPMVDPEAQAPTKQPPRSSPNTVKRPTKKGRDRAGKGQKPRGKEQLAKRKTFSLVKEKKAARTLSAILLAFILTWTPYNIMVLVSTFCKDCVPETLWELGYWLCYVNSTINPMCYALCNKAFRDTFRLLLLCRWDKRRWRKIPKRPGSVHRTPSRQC
# Assay: Functional mobilization of intracellular calcium (FLIPR), M1-CHO cells
# Type: cell-based
# Conditions: 100% efficacy = maximum response obtained with the Carbachol control
# Procedure: as §1, §2, §3, §4, §5, §6
row,Compound,Emax [%]
1,CN1C(=O)C[C@@H]2CC3(CCN(C4CC5CCC(C5)C4)CC3)c3ccccc3[C@@H]21 (some centres unmarked) [Compound 15],25 to 100
2,CCOC(=O)N1CCC(N2CCC3(CC2)C[C@H]2CC(=O)N(CCOC)[C@H]2c2ccccc23)CC1 [Compound 1],25 to 100
3,CCOC(=O)N1CCC(N2CCC3(CC2)C[C@H]2CC(=O)N(C)[C@H]2c2ccccc23)CC1 [Compound 12],25 to 100
4,O=C1C[C@@H]2[C@H](N1)c1ccccc1C21CCN(C2CCCCC2)CC1 [Compound 31],25 to 100

# Same assay, conditions: CHO cells expressing M1, calcium mobilization
row,Compound,EC50 [nM]
1,CN1C(=O)C[C@@H]2CC3(CCN(C4CC5CCC(C5)C4)CC3)c3ccccc3[C@@H]21 (some centres unmarked) [Compound 15],2000 to 5000
2,CCOC(=O)N1CCC(N2CCC3(CC2)C[C@H]2CC(=O)N(CCOC)[C@H]2c2ccccc23)CC1 [Compound 1],< 2000
3,CCOC(=O)N1CCC(N2CCC3(CC2)C[C@H]2CC(=O)N(C)[C@H]2c2ccccc23)CC1 [Compound 12],< 2000
4,O=C1C[C@@H]2[C@H](N1)c1ccccc1C21CCN(C2CCCCC2)CC1 [Compound 31],< 2000

# Target: T4, M2 muscarinic receptor (Homo sapiens, UniProt P08172)
# T4 construct: expressed in transfected cells; host or cells: CHO (M2-CHO)
# T4 sequence (P08172 1-466): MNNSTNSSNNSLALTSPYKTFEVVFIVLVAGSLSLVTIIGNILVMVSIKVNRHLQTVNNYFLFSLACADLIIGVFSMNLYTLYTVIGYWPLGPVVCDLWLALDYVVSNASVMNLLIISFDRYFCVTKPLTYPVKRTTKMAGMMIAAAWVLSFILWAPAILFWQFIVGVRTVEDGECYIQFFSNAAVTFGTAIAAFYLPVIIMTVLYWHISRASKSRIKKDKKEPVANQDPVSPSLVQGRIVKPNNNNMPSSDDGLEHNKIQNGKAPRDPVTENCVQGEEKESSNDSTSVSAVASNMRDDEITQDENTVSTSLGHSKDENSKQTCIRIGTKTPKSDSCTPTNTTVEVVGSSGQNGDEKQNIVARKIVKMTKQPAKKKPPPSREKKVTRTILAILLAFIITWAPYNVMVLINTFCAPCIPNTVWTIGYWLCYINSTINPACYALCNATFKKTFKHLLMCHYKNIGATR
# Assay: Functional mobilization of intracellular calcium (FLIPR), M2-CHO cells
# Type: cell-based
# Conditions: 100% efficacy = maximum response obtained with the Carbachol control
# Procedure: as §1, §2, §3, §4, §5, §6
row,Compound,Emax [%]
1,CN1C(=O)C[C@@H]2CC3(CCN(C4CC5CCC(C5)C4)CC3)c3ccccc3[C@@H]21 (some centres unmarked) [Compound 15],< 25
2,CCOC(=O)N1CCC(N2CCC3(CC2)C[C@H]2CC(=O)N(CCOC)[C@H]2c2ccccc23)CC1 [Compound 1],25 to 100
3,CCOC(=O)N1CCC(N2CCC3(CC2)C[C@H]2CC(=O)N(C)[C@H]2c2ccccc23)CC1 [Compound 12],25 to 100
4,O=C1C[C@@H]2[C@H](N1)c1ccccc1C21CCN(C2CCCCC2)CC1 [Compound 31],< 25

# Same assay, conditions: CHO cells expressing M2, calcium mobilization
row,Compound,EC50 [nM]
1,CN1C(=O)C[C@@H]2CC3(CCN(C4CC5CCC(C5)C4)CC3)c3ccccc3[C@@H]21 (some centres unmarked) [Compound 15],> 5000
2,CCOC(=O)N1CCC(N2CCC3(CC2)C[C@H]2CC(=O)N(CCOC)[C@H]2c2ccccc23)CC1 [Compound 1],< 2000
3,CCOC(=O)N1CCC(N2CCC3(CC2)C[C@H]2CC(=O)N(C)[C@H]2c2ccccc23)CC1 [Compound 12],< 2000
4,O=C1C[C@@H]2[C@H](N1)c1ccccc1C21CCN(C2CCCCC2)CC1 [Compound 31],2000 to 5000

# Reference: patent US7973162B2, “Modulators of muscarinic receptors” (Vertex Pharmaceuticals Incorporated, priority 2007, dated 2011)
